We go through 2 compounds from EP3452027B1, “USE OF […] TREAT SEA LICE” (priority 2016, dated 2017).

In data set [1] the test system is fish embryos. Conditions: 100µM bergapten; cited from earlier work.
The test system of data set [2] is Lepeophtheirus salmonis sea lice.
For data set [3], the system named is Argulus. Conditions: for Argulus detachment from goldfish and koi carp: after two hours.
Data set [4] relates to Lepeophtheirus salmonis sea lice. In words: whole plant or invertebrate. Conditions: 24 h.

Broadly, the EC50 is the midpoint of the concentration-response curve. A word on the EC90: it is the point of the concentration-response curve where the effect stands at 90%. As a reminder, the LC50 is the concentration lethal to half of the exposed cells or organisms.

≈ marks a conversion by molar mass, not a printed value. Read-outs that look alike come from different tables or passages of the source. Where only a bound is given, the exact number is not on record here.

`COc1c2ccoc2cc2oc(=O)ccc12` [bergapten, 5-methoxypsoralen]: in data set [1], the fish embryos killed entry is listed as “one third” and the “remaining viable embryos with defects in anterior-posterior patterning” value is on record as “half”.

Take `C=C(C)[C@@H]1CCC2=CC(=O)C[C@@H](C)[C@]2(C)C1` [nootkatone]: the “concentrations at which no viable sea lice were observed” value in data set [2] (24 hours post-exposure, microscopic observation) is no less than 38 mg/L. Also, the “Males EC90” value in data set [2] (adult male L. salmonis, 24 hours post exposure) came out at 24.27 µg/mL. Also, the “Females LC50” value in data set [2] (female, Lepeophtheirus salmonis (sea louse), in vivo) was 9.70 µg/mL. The “Males LC50” value in data set [2] (male, Lepeophtheirus salmonis (sea louse), in vivo) was 16.40 µg/mL. Moreover, the “Argulus detachment from goldfish and koi carp” value in data set [3] (2ppm nootkatone in tap water) and in data set [3] (6ppm nootkatone in tap water) was “no parasites could be seen” each time. Further, in data set [3] (in vivo), the “mortality of Argulus” value came out at 100%. Besides, the 50% effective concentration (EC50) in data set [4] (read-out: Females EC50) came to 9.17 µg/mL (≈ 42 µM); in data set [4] (read-out: Males EC50), 11.5 µg/mL (≈ 52.9 µM). The 90% effect concentration (EC90) in data set [4] (read-out: Females EC90, adult female (pre-ovigerous) L. salmonis, 24 hours post exposure) is 13.4 µg/mL (≈ 61.5 µM); in data set [4] (read-out: Males EC90, adult male L. salmonis, 24 hours post exposure), 24.3 µg/mL (≈ 111 µM). Also, the LC50 worked out at 9.69 µg/mL (≈ 44.4 µM) in data set [4] (read-out: Females LC50), 13.5 µg/mL (≈ 62 µM) in data set [4] (read-out: LC50 for the total sea lice population (dose that would kill 50% of the total population)) and 16.4 µg/mL (≈ 75.1 µM) in data set [4] (read-out: Males LC50).
